“Also recorded” adds a separate entry of the source. Read-outs that look alike come from different tables or passages of the source.
How the values were obtained:
rats = experiment: GLP auditory safety study after single IT administration; type: in vivo, rat
Method: Gross observations were recorded, and selected organs were weighed.

[1] = calculation of the maximum recommended starting dose (MRSD); design: species or system human
Method: For the calculation of the maximum recommended starting dose (MRSD) the following parameters have been considered:
The total perilymph volume in rat will be then: (Cochlearperilymph+Semicircular canalsperilymph)=STperilymph+SVperilymph+Semicircular canalsperilymph=1.04+1.59+0.9=3.53 μl
The total perilymph volume in human has been described to be 158 μl (Buckingham and Valvassori, Ann. Otol. Rhinol. Laryngol. 2001, 110(2), 113-7).
The amount of LPT99 to be injected in humans is normalized with the volumes of perilymph in rats and humans and the amount injected at the NOAEL dose as follows: LPT99 injected,rats/Volume perilymphrats=LPT99 injected,humans/Volume perilymphhumans 15 μg/3.53 μl=Y μg/158 μl; Y=671.38 μg.
MRSD should not exceed that which is calculated to deliver 1/10th of the estimated perilymph concentration of LPT99 in rat at the NOAEL, when normalized to the perilymph volume in humans. 67.14 μg ( 1/10 of 671.38 μg) is calculated as the maximum mass of LPT99 to be delivered in a volume of 200 μl. The MRSD would be then 67.14 μg/200 μl=535 μM.

[2] = test system: BALB/c 3T3 mouse fibroblasts; experiment: in vitro phototoxicity; type: cell-based; settings: ≤100 μM
Method: An in vitro experiment was performed in BALB/c 3T3 mouse fibroblasts to determine the phototoxic potential of LPT99 at concentrations of ≤100 μM in 3T3 L1 cells.

[3] = test system: auditory function (ototoxicity); experiment: non-GLP auditory toxicity after intra-tympanic administration; type: in vivo, rat; settings: for ototoxicity: rat
opioid (kOP) = opioid (kOP) (Homo sapiens, UniProt P41145); experiment: off-target selectivity panel; type: binding
Method: (§1) To identify off-target activities of LPT99, its selectivity against a panel of receptors (44 G-protein-coupled receptors [GPCR] and 4 non-GPCR), 4 ion channels, and 3 transporters were analyzed. The cell line, HEI-OC1 (house ear institute organ of Corti 1), which expresses several characteristic markers of the organ of Corti sensory cells (Kalinec, et al., Audiol. Neurootol. 2003, 8(4), 177-89), was used to evaluate the efficacy of LPT99 in preventing apoptosis due to […]. Cells were pre-incubated with LPT99, followed by […] for 24 hours.
(§2) For 14 of the tested targets-adenosine receptor 3 (A3); cholecystokinin: cholecystokinin receptor 1 (CCK1); melatonin receptor (MT1); neurokinin (NK2 and NK3); opioid (kOP and mOP); serotonin receptors (5HT-1A, 5HT-2A, 5HT-2B and 5HT-7); and vasopressin (ViA; Na+channel site 2 and C1-GABA-gated channel)—the LPT99 affinity was >50%. At 1 μM, the inhibition of 13 of these targets was <50%, indicating a very low affinity with LPT99.

Na+channel site 2 = experiment: off-target selectivity panel; type: binding
Method: as §1, §2

neurokinin (NK2) = neurokinin (NK2) (Homo sapiens, UniProt P21452); experiment: off-target selectivity panel; type: binding
Chain of neurokinin (NK2) (P21452 whole entry): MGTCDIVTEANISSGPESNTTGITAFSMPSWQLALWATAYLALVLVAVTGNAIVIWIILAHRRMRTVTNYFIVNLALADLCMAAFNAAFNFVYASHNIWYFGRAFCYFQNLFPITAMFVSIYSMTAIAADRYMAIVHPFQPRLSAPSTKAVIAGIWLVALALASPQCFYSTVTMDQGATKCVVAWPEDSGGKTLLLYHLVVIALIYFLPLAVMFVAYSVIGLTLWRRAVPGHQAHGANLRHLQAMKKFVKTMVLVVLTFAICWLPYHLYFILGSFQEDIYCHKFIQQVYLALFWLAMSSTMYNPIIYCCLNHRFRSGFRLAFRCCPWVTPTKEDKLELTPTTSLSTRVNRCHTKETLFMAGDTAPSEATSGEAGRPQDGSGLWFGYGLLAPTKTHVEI
Method: as §1, §2

opioid (mOP) = opioid (mOP) (Homo sapiens, UniProt P35372); experiment: off-target selectivity panel; type: binding
Chain of opioid (mOP) (P35372 whole entry): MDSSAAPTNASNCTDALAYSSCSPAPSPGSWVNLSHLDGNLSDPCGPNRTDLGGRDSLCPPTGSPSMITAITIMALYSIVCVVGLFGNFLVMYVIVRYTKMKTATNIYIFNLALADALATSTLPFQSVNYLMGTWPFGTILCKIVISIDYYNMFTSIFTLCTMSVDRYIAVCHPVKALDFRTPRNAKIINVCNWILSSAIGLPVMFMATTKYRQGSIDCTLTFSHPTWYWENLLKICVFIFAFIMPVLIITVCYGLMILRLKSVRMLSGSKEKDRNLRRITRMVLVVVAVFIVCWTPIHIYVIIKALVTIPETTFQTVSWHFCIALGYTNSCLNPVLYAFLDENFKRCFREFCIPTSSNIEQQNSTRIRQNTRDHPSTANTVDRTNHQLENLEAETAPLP
Method: as §1, §2

serotonin receptor 5HT-7 = serotonin receptor 5HT-7 (Homo sapiens, UniProt P34969); experiment: off-target selectivity panel; type: binding
Chain of serotonin receptor 5HT-7 (P34969 whole entry): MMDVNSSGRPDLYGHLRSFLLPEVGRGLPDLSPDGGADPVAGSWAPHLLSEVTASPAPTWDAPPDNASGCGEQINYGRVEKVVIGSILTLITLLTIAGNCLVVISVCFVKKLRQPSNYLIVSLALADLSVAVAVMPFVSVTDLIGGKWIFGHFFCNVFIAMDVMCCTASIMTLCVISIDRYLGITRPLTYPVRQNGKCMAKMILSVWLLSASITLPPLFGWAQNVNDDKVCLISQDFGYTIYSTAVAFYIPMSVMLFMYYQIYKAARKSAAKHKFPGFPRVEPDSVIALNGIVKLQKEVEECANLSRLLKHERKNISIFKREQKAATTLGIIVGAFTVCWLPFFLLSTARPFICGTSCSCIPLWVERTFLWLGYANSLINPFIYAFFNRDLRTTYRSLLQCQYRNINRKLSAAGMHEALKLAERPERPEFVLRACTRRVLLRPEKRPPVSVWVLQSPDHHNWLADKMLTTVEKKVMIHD
Method: as §1, §2

[4] = biological target: serotonin receptor 5HT-1A (Homo sapiens, UniProt P08908); experiment: off-target selectivity panel; type: binding
Chain of serotonin receptor 5HT-1A (P08908 whole entry): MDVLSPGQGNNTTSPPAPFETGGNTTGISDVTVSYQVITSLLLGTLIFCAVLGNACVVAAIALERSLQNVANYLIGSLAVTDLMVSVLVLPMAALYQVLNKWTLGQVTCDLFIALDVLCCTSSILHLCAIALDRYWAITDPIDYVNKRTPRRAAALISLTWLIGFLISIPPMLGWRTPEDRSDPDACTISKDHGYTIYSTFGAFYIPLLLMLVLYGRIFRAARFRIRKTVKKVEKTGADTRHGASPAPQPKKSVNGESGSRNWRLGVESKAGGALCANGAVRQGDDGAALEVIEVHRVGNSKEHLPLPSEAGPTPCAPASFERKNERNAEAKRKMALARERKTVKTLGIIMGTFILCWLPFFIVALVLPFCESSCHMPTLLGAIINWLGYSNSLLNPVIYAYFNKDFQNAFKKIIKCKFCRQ
Method: as §1, §2

[5] = biological target: adenosine receptor 3 (A3) (Homo sapiens, UniProt P0DMS8); experiment: off-target selectivity panel; type: binding
Chain of adenosine receptor 3 (A3) (P0DMS8 whole entry): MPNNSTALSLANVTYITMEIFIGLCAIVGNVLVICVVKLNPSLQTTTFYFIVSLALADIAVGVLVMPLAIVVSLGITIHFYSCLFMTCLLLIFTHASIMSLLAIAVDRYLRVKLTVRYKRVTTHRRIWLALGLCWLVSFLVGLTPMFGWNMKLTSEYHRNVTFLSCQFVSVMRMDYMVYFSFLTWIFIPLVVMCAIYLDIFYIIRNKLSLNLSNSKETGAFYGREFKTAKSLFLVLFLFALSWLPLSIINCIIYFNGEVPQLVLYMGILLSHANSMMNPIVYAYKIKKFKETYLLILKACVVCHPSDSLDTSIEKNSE
Method: as §1, §2

C1-GABA-gated channel = experiment: off-target selectivity panel; type: binding
Method: as §1, §2

vasopressin (ViA) = vasopressin (ViA) (Homo sapiens, UniProt P37288); experiment: off-target selectivity panel; type: binding
Chain of vasopressin (ViA) (P37288 whole entry): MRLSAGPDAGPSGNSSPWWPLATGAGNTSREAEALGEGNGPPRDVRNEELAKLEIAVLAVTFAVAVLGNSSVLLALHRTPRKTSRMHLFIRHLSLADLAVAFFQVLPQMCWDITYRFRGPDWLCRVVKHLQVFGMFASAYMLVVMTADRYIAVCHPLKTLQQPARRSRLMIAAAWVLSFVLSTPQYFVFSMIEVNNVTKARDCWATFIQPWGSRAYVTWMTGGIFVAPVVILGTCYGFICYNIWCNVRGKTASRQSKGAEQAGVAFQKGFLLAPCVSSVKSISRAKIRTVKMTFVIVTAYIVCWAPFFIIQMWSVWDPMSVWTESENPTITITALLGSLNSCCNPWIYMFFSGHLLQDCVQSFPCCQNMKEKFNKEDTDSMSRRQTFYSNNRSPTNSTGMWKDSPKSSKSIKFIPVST
Method: as §1, §2

[6] = biological target: cholecystokinin receptor 1 (CCK1) (Homo sapiens, UniProt P32238); experiment: off-target selectivity panel; type: binding
Chain of cholecystokinin receptor 1 (CCK1) (P32238 whole entry): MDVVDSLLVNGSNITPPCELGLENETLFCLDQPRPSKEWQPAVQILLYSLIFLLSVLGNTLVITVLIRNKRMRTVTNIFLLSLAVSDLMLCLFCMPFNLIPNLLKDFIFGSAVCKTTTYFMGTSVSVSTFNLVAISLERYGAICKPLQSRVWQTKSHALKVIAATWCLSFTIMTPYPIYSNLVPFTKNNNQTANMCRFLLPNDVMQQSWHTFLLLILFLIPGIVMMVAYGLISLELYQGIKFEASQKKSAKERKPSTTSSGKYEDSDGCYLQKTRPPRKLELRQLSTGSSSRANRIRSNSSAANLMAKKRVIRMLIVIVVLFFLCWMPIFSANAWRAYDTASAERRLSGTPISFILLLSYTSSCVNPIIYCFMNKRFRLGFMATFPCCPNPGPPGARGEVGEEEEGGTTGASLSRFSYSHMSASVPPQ
Method: as §1, §2

melatonin receptor (MT1) = melatonin receptor (MT1) (Homo sapiens, UniProt P48039); experiment: off-target selectivity panel; type: binding
Chain of melatonin receptor (MT1) (P48039 whole entry): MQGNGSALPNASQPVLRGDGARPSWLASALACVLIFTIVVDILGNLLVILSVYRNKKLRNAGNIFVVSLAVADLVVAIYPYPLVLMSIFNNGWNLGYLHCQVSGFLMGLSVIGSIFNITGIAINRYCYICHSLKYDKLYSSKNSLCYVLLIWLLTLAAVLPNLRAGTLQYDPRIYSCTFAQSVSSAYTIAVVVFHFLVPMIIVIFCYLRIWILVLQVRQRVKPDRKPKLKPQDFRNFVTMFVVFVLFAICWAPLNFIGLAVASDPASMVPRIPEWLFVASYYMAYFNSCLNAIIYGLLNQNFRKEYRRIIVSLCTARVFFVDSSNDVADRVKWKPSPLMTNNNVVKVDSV
Method: as §1, §2

neurokinin (NK3) = neurokinin (NK3) (Homo sapiens, UniProt P29371); experiment: off-target selectivity panel; type: binding
Chain of neurokinin (NK3) (P29371 whole entry): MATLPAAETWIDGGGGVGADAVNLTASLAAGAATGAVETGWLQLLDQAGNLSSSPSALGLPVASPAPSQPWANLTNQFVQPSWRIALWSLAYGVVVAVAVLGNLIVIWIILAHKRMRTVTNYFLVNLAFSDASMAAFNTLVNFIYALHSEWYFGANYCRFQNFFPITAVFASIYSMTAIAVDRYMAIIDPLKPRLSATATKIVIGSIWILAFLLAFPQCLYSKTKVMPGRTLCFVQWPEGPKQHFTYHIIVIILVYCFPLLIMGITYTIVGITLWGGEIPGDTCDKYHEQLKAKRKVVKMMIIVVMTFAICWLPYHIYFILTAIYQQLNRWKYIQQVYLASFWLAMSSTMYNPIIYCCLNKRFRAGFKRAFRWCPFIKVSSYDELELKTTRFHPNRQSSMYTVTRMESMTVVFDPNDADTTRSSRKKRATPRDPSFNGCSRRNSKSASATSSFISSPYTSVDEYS
Method: as §1, §2

[7] = biological target: serotonin receptor 5HT-2B (Homo sapiens, UniProt P41595); experiment: off-target selectivity panel; type: binding
Chain of serotonin receptor 5HT-2B (P41595 whole entry): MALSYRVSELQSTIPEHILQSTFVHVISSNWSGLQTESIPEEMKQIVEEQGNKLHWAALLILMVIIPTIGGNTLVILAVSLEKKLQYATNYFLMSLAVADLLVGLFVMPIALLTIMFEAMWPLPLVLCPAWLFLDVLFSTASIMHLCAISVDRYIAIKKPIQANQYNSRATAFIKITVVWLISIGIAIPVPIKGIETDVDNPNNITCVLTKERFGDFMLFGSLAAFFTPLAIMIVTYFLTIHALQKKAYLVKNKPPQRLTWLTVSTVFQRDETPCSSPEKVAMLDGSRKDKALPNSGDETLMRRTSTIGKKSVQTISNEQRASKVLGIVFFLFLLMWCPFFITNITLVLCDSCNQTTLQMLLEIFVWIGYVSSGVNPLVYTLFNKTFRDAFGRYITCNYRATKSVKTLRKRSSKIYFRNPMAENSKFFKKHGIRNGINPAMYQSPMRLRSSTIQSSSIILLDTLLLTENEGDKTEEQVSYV
Method: as §1, §2

[8] = biological target: serotonin receptor 5HT-2A (Homo sapiens, UniProt P28223); experiment: off-target selectivity panel; type: binding
Chain of serotonin receptor 5HT-2A (P28223 whole entry): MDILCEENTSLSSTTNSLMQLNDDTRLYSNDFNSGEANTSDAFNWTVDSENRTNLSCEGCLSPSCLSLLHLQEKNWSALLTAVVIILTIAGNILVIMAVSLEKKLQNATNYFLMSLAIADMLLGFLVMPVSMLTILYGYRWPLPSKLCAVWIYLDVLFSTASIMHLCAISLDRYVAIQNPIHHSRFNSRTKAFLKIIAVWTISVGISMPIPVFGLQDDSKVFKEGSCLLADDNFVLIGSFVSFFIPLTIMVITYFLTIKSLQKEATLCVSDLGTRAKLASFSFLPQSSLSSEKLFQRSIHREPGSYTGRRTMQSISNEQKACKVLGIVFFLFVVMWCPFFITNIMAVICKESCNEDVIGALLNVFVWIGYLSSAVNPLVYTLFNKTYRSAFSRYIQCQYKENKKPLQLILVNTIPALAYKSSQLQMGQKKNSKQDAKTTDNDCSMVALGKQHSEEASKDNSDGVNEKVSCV
Method: as §1, §2

[9] = cochlear distribution after IT administration (absorption); type: in vivo; settings: rat; for concentration at 24 h: cochlea (cochlear homogenate), other: intratympanic (IT), read-out: mean cochlear LPT99 concentration; for peak mean cochlear LPT99 concentration: 1 hour
From the text: Cochleae were harvested and rinsed at several timepoints after intratympanic injection of drug product. Drug concentration (y axis) in cochlear homogenates is expressed as nanograms LPT99 per gram of cochlear homogenate. • (i) Absorption
LPT99 cochlear distribution after IT administration was studied in rats. […] LPT99 concentration was quantified with an ultra-performance liquid chromatography tandem mass spectrometry (UPLC-ESI/MS/MS) system.

For `COc1ccc2[nH]cc(CCNC(=O)CC3C(=O)N(CCc4ccc(Cl)cc4Cl)CC(=O)N3CCc3cccs3)c2c1` (centres unmarked) [LPT99, 2-(4-(2,4-dichlorophenethyl)-3,6-dioxo-1-(2-(thiophen-2-yl)ethyl)piperazin-2-yl)-N-(2-(5-methoxy-1H-indol-3-yl)ethyl)acetamide], which “tolerability of single IT dose” value (rats; rat, 200, 400, or 797 μM, 30 μL per ear) is on record?
Its value is “generally well tolerated”.

And the “mass of injected LPT99 at the no observed adverse effect level (NOAEL)” value (rats; rat, IT, 30 μl of 797 μM)?
The value was 15 µg.

What about the “auditory brainstem response (hearing loss)” value (rats; rat, in vivo) of the same compound?
The value was “no reliable evidence of test-article-related hearing loss”.

And the “cytocochleogram (hair cell loss)” value (rats; rat, in vivo)?
The value was “no reliable evidence of test-article-related hair cell loss”.

And the “otoscopic examination of the tympanic membranes (erythema, edema, wounds)” value (rats; rat, in vivo)?
Its value is “no statistically significant changes in erythema, edema, or wounds”.

And the “mortalities, clinical abnormalities, body weight, food intake, clinical pathologies” value (rats; rat, single bilateral IT 30 μL per ear, 14-day study)?
The value was “no LPT99- or gentamicin-related mortalities”.

And the MRSD ([1]; human)?
Its MRSD is 535 µM.

What about the “maximum mass of LPT99 to be delivered (1/10 of NOAEL equivalent)” value ([1]; in a volume of 200 μl) of the same compound?
The value was 67.14 µg.

What about the “amount of LPT99 to be injected in humans normalized by perilymph volume at the NOAEL” value ([1]; rat 3.53 μl vs human 158 μl perilymph) of the same compound?
The value was 671.38 µg.

What about the “cytotoxicity in the presence or absence of ultraviolet-visible irradiation” value [2] of the same compound?
Its value is “not cytotoxic”.

What about the phototoxicity [2] of the same compound?
The phototoxicity was “not be phototoxic”.

What about the “ABR thresholds in response to click or pure tones (8 to 40 kHz), latencies and amplitudes” value ([3]; IT, in cyclodextrin, 100 or 200 μM, Day 3) of the same compound?
Its value is “did not produce a statistically significant increase in the thresholds”.

What about the ototoxicity ([3]; IT, 100 and 478 μM, follow-up experiment) of the same compound?
Its ototoxicity is “no LPT99 ototoxicity”.

And the ototoxicity ([3]; IT, 200, 400, and 797 μM)?
Its ototoxicity is “no ototoxicity”.

And the inhibition at 1 µM (opioid (kOP); 1 μM)?
The inhibition at 1 µM was < 50%.

And the inhibition at 10 µM (opioid (kOP); 10 μM, read-out: affinity (inhibition) kOP)?
Its inhibition at 10 µM is > 50%.

What about the “inhibition Na+channel site 2” value (Na+channel site 2; 1 μM) of the same compound?
Its value is < 50%.

What about the “affinity (inhibition) Na+channel site 2” value (Na+channel site 2; 10 μM) of the same compound?
Its value is > 50%.

And the inhibition at 1 µM (neurokinin (NK2); 1 μM)?
Its inhibition at 1 µM is < 50%.

What about the inhibition at 10 µM (neurokinin (NK2); 10 μM, read-out: affinity (inhibition) NK2) of the same compound?
Its inhibition at 10 µM is > 50%.

What about the inhibition at 1 µM (opioid (mOP); 1 μM) of the same compound?
Its inhibition at 1 µM is < 50%.

And the inhibition at 10 µM (opioid (mOP); 10 μM, read-out: affinity (inhibition) mOP)?
Its inhibition at 10 µM is > 50%.

And the inhibition at 1 µM (serotonin receptor 5HT-7; 1 μM)?
Its inhibition at 1 µM is < 50%.

What about the inhibition at 10 µM (serotonin receptor 5HT-7; 10 μM, read-out: affinity (inhibition) 5HT-7) of the same compound?
Its inhibition at 10 µM is > 50%.

What about the inhibition at 1 µM ([4]; 1 μM) of the same compound?
Its inhibition at 1 µM is < 50%.

And the inhibition at 10 µM ([4]; 10 μM, read-out: affinity (inhibition) 5HT-1A)?
Its inhibition at 10 µM is > 50%.

What about the inhibition at 1 µM ([5]; 1 μM) of the same compound?
The inhibition at 1 µM was < 50%.

What about the inhibition at 10 µM ([5]; 10 μM, read-out: affinity (inhibition) A3) of the same compound?
The inhibition at 10 µM was > 50%.

What about the “inhibition C1-GABA-gated channel” value (C1-GABA-gated channel; 1 μM) of the same compound?
The value was < 50%.

What about the “affinity (inhibition) C1-GABA-gated channel” value (C1-GABA-gated channel; 10 μM) of the same compound?
The value was > 50%.

What about the inhibition at 1 µM (vasopressin (ViA); 1 μM) of the same compound?
The inhibition at 1 µM was < 50%.

And the inhibition at 10 µM (vasopressin (ViA); 10 μM, read-out: affinity (inhibition) ViA)?
The inhibition at 10 µM was > 50%.

What about the inhibition at 1 µM ([6]; 1 μM) of the same compound?
Its inhibition at 1 µM is < 50%.

What about the inhibition at 10 µM ([6]; 10 μM, read-out: affinity (inhibition) CCK1) of the same compound?
Its inhibition at 10 µM is > 50%.

And the inhibition at 0.1 µM (melatonin receptor (MT1); 0.1 μM)?
The inhibition at 0.1 µM was 6%.

What about the inhibition at 1 µM (melatonin receptor (MT1); 1 μM) of the same compound?
The inhibition at 1 µM was 53%.

And the inhibition at 10 µM (melatonin receptor (MT1); 10 μM, read-out: affinity (inhibition) MT1)?
Its inhibition at 10 µM is > 50%.

What about the inhibition at 1 µM (neurokinin (NK3); 1 μM) of the same compound?
The inhibition at 1 µM was < 50%.

And the inhibition at 10 µM (neurokinin (NK3); 10 μM, read-out: affinity (inhibition) NK3)?
Its inhibition at 10 µM is > 50%.

What about the inhibition at 1 µM ([7]; 1 μM) of the same compound?
The inhibition at 1 µM was < 50%.

And the inhibition at 10 µM ([7]; 10 μM, read-out: affinity (inhibition) 5HT-2B)?
Its inhibition at 10 µM is > 50%.

What about the inhibition at 1 µM ([8]; 1 μM) of the same compound?
The inhibition at 1 µM was < 50%.

What about the inhibition at 10 µM ([8]; 10 μM, read-out: affinity (inhibition) 5HT-2A) of the same compound?
The inhibition at 10 µM was > 50%.

And the concentration at 24 h ([9]; IT 50 μM)?
The concentration at 24 h was 1.8 ng/g.

What about the concentration at 24 h ([9]; IT 100 μM) of the same compound?
The concentration at 24 h was 13.9 ng/g.

And the concentration at 24 h ([9]; IT 200 μM)?
The concentration at 24 h was 13.4 ng/g.

And the “distribution after IT administration” value ([9]; IT)?
Its value is “distributes locally to the cochlea; also recorded: distributed to cochlea in a dose-dependent manner”.

What about the “peak mean cochlear LPT99 concentration” value ([9]; IT 50 μM) of the same compound?
Its value is 328.5 ng/g cochlea.

And the “peak mean cochlear LPT99 concentration” value ([9]; IT 100 μM)?
Its value is 491.3 ng/g cochlea.

And the “peak mean cochlear LPT99 concentration” value ([9]; IT 200 μM)?
Its value is 611.1 ng/g cochlea.

Source: patent publication US10561736B1, “Apoptosis inhibitor formulations for prevention of hearing loss” (Spiral Therapeutics, Inc., priority 2019, dated 2020)
